Data: patent publication US20020026053A1, “Novel 3-(substituted) -2- indolinones compounds and use thereof as inhibitors of protein kinase activity” (priority 1997, published 2002)

Test system: FLK-1 receptor
Assay: FLK-1 Assay (cellular/catalytic ELISA, VEGF-stimulated phosphotyrosine)
Type: cell-based
Parameters: concentration or dose not given beside the values
Summary of the method: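 Receptor phosphotyrosine ELISA: Flk-1-expressing NIH3T3 C7#3 cells, starved overnight in 0.1% FBS medium, received compound (1:200 final dilution, 0.5% DMSO) for 2 h at 37 °C, then VEGF. Anti-FLK-1-captured receptor was probed with anti-phosphotyrosine UB40 and peroxidase/ABTS read-out, relative to cells without compound.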

O=C1Nc2ccc(S(=O)(=O)Nc3ccc(C(F)(F)F)cc3)cc2C1=Cc1cc(C(F)(F)F)cc(C(F)(F)F)c1 [10735/E06]
Flk Kinase % Inhibition (P.110): 23.8%

N#Cc1ccccc1C=C1C(=O)Nc2ccc(S(=O)(=O)Nc3ccc(C(F)(F)F)cc3)cc21 [10735/E07]
Flk Kinase % Inhibition (P.110): 16.1%

O=C1Nc2ccc(S(=O)(=O)Nc3ccc(C(F)(F)F)cc3)cc2C1=Cc1c(F)cccc1F [10735/E08]
Flk Kinase % Inhibition (P.110): 14.4%

O=C1Nc2ccc(S(=O)(=O)Nc3ccc(C(F)(F)F)cc3)cc2C1=Cc1cccc2ccccc12 [10735/E09]
Flk Kinase % Inhibition (P.110): 29.6%

O=C1Nc2ccc(S(=O)(=O)Nc3ccc(C(F)(F)F)cc3)cc2C1=Cc1ccc(Cl)cc1Cl [10735/E10]
Flk Kinase % Inhibition (P.110): 10.2%

O=C1Nc2ccc(S(=O)(=O)Nc3ccc(C(F)(F)F)cc3)cc2C1=Cc1ccc(-c2ccccc2)cc1 [10735/E11]
Flk Kinase % Inhibition (P.110): 21.9%

Cc1ccccc1C=C1C(=O)Nc2ccc(S(=O)(=O)N3CCOCC3)cc21 [10735/F02]
Flk Kinase % Inhibition (P.110): 2.1%

O=C1Nc2ccc(S(=O)(=O)N3CCOCC3)cc2C1=Cc1ccc(F)c(F)c1 [10735/F03]
Flk Kinase % Inhibition (P.110): 11.0%

O=C1Nc2ccc(S(=O)(=O)N3CCOCC3)cc2C1=Cc1cc(F)cc(F)c1 [10735/F04]
Flk Kinase % Inhibition (P.110): 16.4%

O=C1Nc2ccc(S(=O)(=O)N3CCOCC3)cc2C1=Cc1cccc(C(F)(F)F)c1 [10735/F05]
Flk Kinase % Inhibition (P.110): 30.2%

O=C1Nc2ccc(S(=O)(=O)N3CCOCC3)cc2C1=Cc1cc(C(F)(F)F)cc(C(F)(F)F)c1 [10735/F06]
Flk Kinase % Inhibition (P.110): 16.7%

N#Cc1ccccc1C=C1C(=O)Nc2ccc(S(=O)(=O)N3CCOCC3)cc21 [10735/F07]
Flk Kinase % Inhibition (P.110): 34.0%

O=C1Nc2ccc(S(=O)(=O)N3CCOCC3)cc2C1=Cc1c(F)cccc1F [10735/F08]
Flk Kinase % Inhibition (P.110): 10.7%

O=C1Nc2ccc(S(=O)(=O)N3CCOCC3)cc2C1=Cc1cccc2ccccc12 [10735/F09]
Flk Kinase % Inhibition (P.110): 40.2%

O=C1Nc2ccc(S(=O)(=O)N3CCOCC3)cc2C1=Cc1ccc(Cl)cc1Cl [10735/F10]
Flk Kinase % Inhibition (P.110): 40.0%

O=C1Nc2ccc(S(=O)(=O)N3CCOCC3)cc2C1=Cc1ccc(-c2ccccc2)cc1 [10735/F11]
Flk Kinase % Inhibition (P.110): 34.6%

Cc1ccccc1C=C1C(=O)Nc2ccc(CCCl)cc21 [10735/G02]
Flk Kinase % Inhibition (P.110): 5.1%

O=C1Nc2ccc(CCCl)cc2C1=Cc1ccc(F)c(F)c1 [10735/G03]
Flk Kinase % Inhibition (P.110): 6.8%

O=C1Nc2ccc(CCCl)cc2C1=Cc1cc(F)cc(F)c1 [10735/G04]
Flk Kinase % Inhibition (P.110): 15.6%

O=C1Nc2ccc(CCCl)cc2C1=Cc1cccc(C(F)(F)F)c1 [10735/G05]
Flk Kinase % Inhibition (P.110): 8.8%

O=C1Nc2ccc(CCCl)cc2C1=Cc1cc(C(F)(F)F)cc(C(F)(F)F)c1 [10735/G06]
Flk Kinase % Inhibition (P.110): 18.5%
